The numbers were not newly measured in US10653626B2, “Powder for oral suspension containing lamotrigine” (Shanghai Aucta Pharmaceuticals Co., Ltd., priority 2016, dated 2020), which cites them from elsewhere.

As to `Nc1nnc(-c2cccc(Cl)c2Cl)c(N)n1` [Lamotrigine, 6-(2,3-dichlorophenyl)-1,2,4-triazine-3,5-diamine], the Solubility in water entry was “insoluble in water”.
